From patent US20240182859A1, “MEDIUM COMPOSITION FOR CULTURING MUSCLE STEM CELL COMPRISING CURCUMIN LONGA, GLYSIN, OR INSULIN FOR PROLIFERATION OF MUSCLE STEM CELL” (HYUPSUNG UNIVERSITY INDUSTRY-ACADEMIC COOPERATION FOUNDATION, priority 2021, published 2024)

Experiments:
Pax7 = test: qPCR expression level of Pax7 (myoblast marker) in cultured muscle stem cells; assay type: cell-based, bovine; conditions: for expression of Pax7, concentration dependence: concentration series
Description: (§1) In detail, first, bovine rump meat was treated with trypsin, and then primary-cultured to obtain bovine muscle stem cells. Afterwards, a culture medium supplemented with curcumin and bFGF was prepared by varying the concentration of curcumin (0.1 μm, 1 μm, 5 μm, 8 μm, and 10 8 μm, respectively) in a DMEM basal medium supplemented with 5% FBS and 8 ng/ml of bFGF, and the muscle stem cells were cultured through passage culture twice.
(§2) In detail, first, bovine rump meat was treated with trypsin, and then primary-cultured to obtain bovine muscle stem cells. Afterwards, a culture medium supplemented with curcumin was prepared by varying the concentration of curcumin (0.1 μm, 1 μm, 5 μm, 8 μm, and 10 μm, respectively) in a DMEM basal medium supplemented with 5% FBS, and the muscle stem cells were cultured through passage culture twice.
(§3) In detail, first, bovine rump meat was treated with trypsin, and then primary-cultured to obtain bovine muscle stem cells.
(§4) First, bovine rump meat was treated with trypsin, and then primary-cultured to obtain bovine muscle stem cells.
(§5) In detail, first, bovine rump meat was treated with trypsin, and then primary-cultured to obtain bovine muscle stem cells. Afterwards, a culture medium supplemented with insulin and bFGF was prepared by varying the concentration of insulin (0.1 μm, 1 μm, 5 μm, 8 μm, and 10 8 μm, respectively) in a DMEM basal medium supplemented with 5% FBS and 8 ng/ml of bFGF, and the muscle stem cells were cultured through passage culture twice.
(§6) In detail, first, bovine rump meat was treated with trypsin, and then primary-cultured to obtain bovine muscle stem cells. Afterwards, a culture medium supplemented with insulin was prepared by varying the concentration of insulin (0.1 μm, 1 μm, 5 μm, 8 μm, and 10 μm, respectively) in a DMEM basal medium supplemented with 5% FBS, and the muscle stem cells were cultured through passage culture twice.

Nanog = test: qPCR expression level of Nanog (muscle stem cell marker) in cultured muscle stem cells; assay type: cell-based, bovine
Description: as §1, §2, §3, §4, §5, §6

Oct4 = test: qPCR expression level of Oct4 (muscle stem cell marker) in cultured muscle stem cells; assay type: cell-based, bovine
Description: as §1, §2, §3, §4, §5, §6

bovine muscle stem cells = test: Proliferation of bovine muscle stem cells in supplemented DMEM culture medium; assay type: cell-based
Description: as §3
In detail, first, bovine rump meat was treated with trypsin, and then primary-cultured to obtain bovine muscle stem cells. […] As a control, a DMEM basal medium supplemented with 5% FBS was used.
In detail, first, bovine rump meat was treated with trypsin, and then primary-cultured to obtain bovine muscle stem cells. Afterwards, the muscle stem cells were cultured in the DMEM basal medium supplemented with 5% FBS and 10 μM of insulin, and the proliferation of the muscle stem cells was measured. As a control, a DMEM basal medium supplemented with 5% FBS was used.

[1] = medium with 5% FBS + 8 ng/ml bFGF
[2] = glycine 1 mM to 50 mM, bFGF-free
[3] = medium with 5% FBS + 8 ng/ml bFGF, overall statement, passage culture twice
[4] = bFGF-free medium with 5% FBS, overall statement
[5] = insulin 10 μm or more, with 8 ng/ml bFGF

Compound: NCC(=O)O [glycine]
- expression of Pax7 increase vs insulin-free DMSO control (Pax7; 10 µM, bFGF-free insulin culture medium): ≥ 6 times
- expression of Pax7, concentration dependence (Pax7; bFGF-free medium with 5% FBS): increased in proportion to the concentration of glycine
- expression of Pax7 increase vs glycine-free DMSO control (Pax7; glycine 100 mM or more, bFGF-free): ≥ 3 times
- expression of Pax7, concentration dependence (Pax7; [1]): increased in proportion to the concentration of glycine
- expression of Nanog vs glycine-free DMSO control (Nanog; [2]): increased by about twice
- expression of Nanog vs glycine-free DMSO control (Nanog; glycine 10 mM to 100 mM, with 8 ng/ml bFGF): increased by about twice
- expression of Nanog (Nanog; glycine 100 mM, bFGF-free): significantly decreased
- expression of Nanog (Nanog; glycine 150 mM or more, with 8 ng/ml bFGF): significantly decreased
- expression of Nanog (Nanog; [3]): increased
- expression of Oct4 vs glycine-free DMSO control (Oct4; [2]): increased by about twice
- expression of Oct4 increase vs glycine-free DMSO control (Oct4; glycine 1 mM to 50 mM, with 8 ng/ml bFGF): about 2.3 times
- expression of Oct4 (Oct4; glycine 100 mM or more, with 8 ng/ml bFGF): significantly decreased
- expression of Oct4 (Oct4; glycine 100 mM, bFGF-free): significantly decreased
- expression of Oct4 (Oct4; [3]): increased
- cell proliferation rate increase compared to basal medium (bovine muscle stem cells; 100 mM glycine, DMEM + 5% FBS + 8 ng/ml bFGF, cultured for 29 days): ≥ 1.5 times
- cell proliferation rate increase compared to basal medium (bovine muscle stem cells; 100 mM glycine, DMEM + 5% FBS, bFGF-free, cultured for 41 days): ≥ 4.1 times

Compound: insulin
- expression of Pax7, concentration dependence (Pax7; bFGF-free medium with 5% FBS): increased in proportion to the concentration of insulin
- expression of Pax7, concentration dependence (Pax7; [1]): increased in proportion to the concentration of insulin
- expression of Nanog (Nanog; [4]): maintained
- expression of Nanog (Nanog; [5]): significantly decreased
- expression of Nanog (Nanog; insulin 10 μm, bFGF-free): significantly decreased
- expression of Nanog (Nanog; [3]): increased
- expression of Oct4 (Oct4; [4]): increased
- expression of Oct4 (Oct4; [5]): significantly decreased
- expression of Oct4 (Oct4; [3]): increased
- cell proliferation rate increase compared to basal medium (bovine muscle stem cells; 10 μm insulin, DMEM + 5% FBS + 8 ng/ml bFGF, cultured for 29 days): ≥ 6 times
- cell proliferation rate increase compared to basal medium (bovine muscle stem cells; 10 μm insulin, DMEM + 5% FBS, bFGF-free, cultured for 41 days): ≥ 13 times

Compound: COc1cc(/C=C/C(=O)CC(=O)/C=C/c2ccc(O)c(OC)c2)ccc1O [curcumin]
- expression of Pax7, concentration dependence (Pax7; bFGF-free medium with 5% FBS): increased in proportion to the concentration of curcumin
- expression of Pax7 (Pax7; curcumin 8 μm, bFGF-free): significantly increased
- expression of Pax7, concentration dependence (Pax7; [1]): increased in proportion to the concentration of curcumin
- expression of Nanog (Nanog; [4]): maintained
- expression of Nanog vs curcumin-free DMSO control (Nanog; curcumin 0.1 μm and 1 μm, with 8 ng/ml bFGF): increased by about twice
- expression of Nanog (Nanog; curcumin 5 μm or more, with 8 ng/ml bFGF): significantly decreased
- expression of Nanog (Nanog; curcumin 8 μm, bFGF-free): significantly decreased
- expression of Nanog (Nanog; [3]): increased
- expression of Oct4 vs curcumin-free DMSO control (Oct4; curcumin 0.1 μm to 5 μm, with 8 ng/ml bFGF): increased by about twice
- expression of Oct4 vs curcumin-free DMSO control (Oct4; curcumin 1 μm to 5 μm, bFGF-free): increased by at least about twice
- expression of Oct4 (Oct4; curcumin 8 μm or more, with 8 ng/ml bFGF): significantly decreased
- expression of Oct4 (Oct4; curcumin 8 μm, bFGF-free): significantly decreased
- expression of Oct4 (Oct4; [3]): increased
- cell proliferation rate increase compared to basal medium (bovine muscle stem cells; 8 μm curcumin, DMEM + 5% FBS + 8 ng/ml bFGF, cultured for 29 days): ≥ 1.5 times
- cell proliferation rate increase compared to basal medium (bovine muscle stem cells; 8 μm curcumin, DMEM + 5% FBS, bFGF-free, cultured for 41 days): ≥ 1.5 times
